According to article PMC9887206, “Cationic biopolymer decorated Asiatic Acid and Centella asiatica extract incorporated liposomes for treating early-stage Alzheimer’s disease: An In-vitro and In-vivo investigation” (F1000Research, 2022):

Assays:
[1] = In-vitro antioxidant activity (DPPH inhibition); type: biochemical; conditions: at 50 μg/mL, n ≥ 3
Protocol: The prepared formulations' and AA's abilities to neutralise free radicals were determined in vitro and compared with standard ascorbic acid. In this method, free radical DPPH (2,2-diphenyl-1-picrylhydrazyl) was selected as described by Jamuna S. et al. 1.5 mL of 0.1mM free radial DPPH was treated with 3.5mL of 10 to 50 μg/mL concentrated methanolic solution of AA, CAE, optimised CLCAE, and CLAA. The absorbance of all the samples was measured at 518 nm through ELISA plate reader (version AM-2100, USA). The percentage of DPPH inhibition was measured through the formula. %Inhibition of DPPH=Absorptioncontrol−Absorptionsample/Absorptioncontrol×100

[2] = rat p.o; cited from earlier work
[3] = In-vitro drug release, Franz diffusion cell with dialysis membrane; type: physicochemical; conditions: in around 10 hours
Protocol: The % drug release from CLCAE and CLAA were measured through Franz diffusion cell using sigma dialysis membrane and the release rate was compared with AA and CAE. 1 mL sample (100 mg/mL) was kept on one side, while the other part of the membrane was filled with the acidic buffer pH 1.2 (200 mL) dissolution media for two hours. It was then replaced with phosphate buffer pH 7.2 (2–24 hours) with 0.25% w/v sodium lauryl sulphate as two separate media to simulate the stomach and intestinal conditions. The media were sustained at the temperature of 37°C on a magnetic stirrer. A 5 mL sample was withdrawn with the specific intervals and the condition of the sink was kept constant by refilling the same volume of media. Samples were analysed and compared using RP-HPLC at 210 nm. To assess the drug release strategy from the optimised CLAA, the data were fitted to various in vitro kinetic release models like Korsmeyer-Peppas, Higuchi, Zero and First Order models. ^, [36]

[4] = cited from earlier work
[5] = Ex vivo drug permeation, non-everted gut sac; type: in vitro ADME, rats; conditions: throughout 8 hours, non-everted rat intestinal sac
Protocol: The drug intestinal permeation studies of both the optimised formulations were determined using non-everted gut sac procedure. ^, [40] The rats were sacrificed and small intestine was treated with oxygenated saline. The intestine was split into […] sacs that were 8 cm long and loaded with optimised CLCAE and CLAA (~100 mg AA). The thread was used to bind the sac's ends and located in a conical flask filled with ringer’s solution of pH 9 (10 ml). 37°C temperature was kept constant in a water bath shaker at 75 rpm with 5% CO 2 aeration. Every 20 min, for a maximum of 8 h, the samples were removed and substituted with the fresh media. RP-HPLC was used to analyse the screened sample.

[6] = Oral bioavailability study, AA in rat serum; type: in vivo, wistar rats
Protocol: The sum of drug availability after oral intake of AA, CLCAE, and CLAA was performed on three groups of 150-200g wistar rats (n=6). Prior to the procedure, the animals underwent an overnight fast with unlimited access to water. Group I was treated with a single dose of AA (100 mg/kg,p.o.) whereas group II, and III animals received single dose of optimised CLCAE and CLAA (~100 mg/k.g AA, p.o.), respectively. After the dosing, the animals were partially anesthetised using […], from the retro-orbital plexus 1 mL of blood samples were collected in centrifuge tubes at a predetermined time of up to 8 h. To isolate the contents, the serum sample was spun up at 3000 rpm for 10 min. The AA was quantified by RP-HPLC.
Initially, the mixture of 1 mL serum and 5 mL methanol were taken in a volumetric flask at room temperature. The sample was properly mixed before being heated for 30 min at 55°C. After that, a 10 mL flask was made up with methanol and centrifugation for 30 min at 5000 rpm (Remi Elektrotechnik Ltd. India). 20 μL of filtered supernatant was taken for analysis.
Depends on plasma concentration-time curve parameters, the C max and T max of CLCAE and CLAA were analysed. The pharmacokinetic parameters were successfully interpreted through PK/PD computer software version 4.1, USA, which includes measurement drug plasma concentration from zero to last measured sample (AUC 0 -t) and from zero to infinity (AUC 0-∞) measurement of drug elimination half-life (K 1/2el) and elimination rate constant (K el) clearance (Cl) and volume of distribution (V d). The relative bioavailability (F) of both the formulations was determined using the following formula. F=Total amount of drug absorbed from formulation(Amaxformulation)/Total amount of drug absorbed from pureAAAmaxpureAA×100 F=VdXKelXAUC0−∞formulation/VdXKelXAUC0−∞pureAA×100

[7] = Wistar, single oral dose ~100 mg/kg AA

Row | SMILES | Percentage of inhibition of DPPH [1] | LD50 [2] | In vitro drug release [3] | Solubility in water [4] | BCS class ([4]; poor aqueous solubility and permeability) | Amount of drug permeated (ex vivo) [5] | Tmax ([6]; Wistar, 100 mg/kg, single oral dose, read-out: Time of maximum serum concentration) | AUC(0-t) [6, 7] | Cmax [6, 7] | half-life ([6]; Wistar, single oral dose ~100 mg/kg AA, read-out: Elimination half-life (t1/2el) (converted)) | k el ([6]; Wistar, single oral dose ~100 mg/kg AA, read-out: Elimination rate constant (Kel) (converted)) | Maximum serum concentration ([6]; single oral dose) | Clearance (Cl) ([6]; single oral dose ~100 mg/kg AA) | Volume of distribution (Vd) ([6]; single oral dose ~100 mg/kg AA)
1 | O=C1O[C@H]([C@@H](O)CO)C(O)=C1O [ascorbic acid, reference compound] | 90.75 ± 1.45% |  |  |  |  |  |  |  |  |  |  |  |  | 
2 | ClCCl [dichloromethane] |  | 1200 mg/kg |  |  |  |  |  |  |  |  |  |  |  | 
3 | C[C@H]1[C@H](C)CC[C@]2(C(=O)O)CC[C@]3(C)C(=CC[C@@H]4[C@@]5(C)C[C@@H](O)[C@H](O)[C@@](C)(CO)[C@@H]5CC[C@]43C)[C@H]12 [AA, Asiatic acid] | 65.4 ±1.2% |  | 65.34% | insoluble in water | BCS IV | 30.90% | 4 h | 40500 ± 1160 ng·h/mL | 3430 ± 120 ng/mL | 1.97 ± 0.1 h | 0.000142 s⁻¹ | 3.43 ± 0.12 µg/mL | 0.55 ± 0.002 L h ^−1 | 1.62 ± 0.26 L
